These results are taken from patent US20230364089A1, “COMPOUNDS AND COMPOSITIONS FOR THE TREATMENT OR PREVENTION OF PATHOLOGICAL CONDITIONS ASSOCIATED WITH EXCESS FIBRIN DEPOSITION AND/OR THROMBUS FORMATION” (Cereno Scientific AB, priority 2016, published 2023).

For data set [1] the following is noted: cited from earlier work.
The conditions of data set [2]: once daily (in healthy volunteers); cited from earlier work.
Data set [3] relates to PAI-1. Briefly: Example 2 intermediate endpoint study in patients with TIA/minor stroke: plasma PAI-1 and plasma valproic acid.
Description: An intermediate endpoint proof-of-concept study is performed in patients with TIA/minor stroke investigated before and after treatment with Valproic acid. Valproic acid is administrated as an enteric-coated tablet with delayed absorption.
The study comprises 20 patients with TIA/minor stroke. Patients are investigated before and after oral treatment with 400 mg valproic acid once time daily at 11 pm for 2 weeks. Plasma PAI-1 levels and plasma concentrations of valproic acid is followed daily during the study period at the following time-points: 3 am, 6 am, 10 am, 16 pm, 22 pm PAI-1 levels are measured by commercially available ELISA-kits (Coaliza PAI-1, ChromogenixAB) and the plasma concentration of valproic acid an metabolites thereof is analyzed according to clinical routine at the Sahlgrenska University laboratory, Gothenburg, Sweden.
Data set [4] deals with PAI-1. To be noted: in vivo model in pig (Svennerholm et al., PLoS One 2014); cited from earlier work.
Data set [5] deals with cultured endothelial cells. Briefly: PAI-1 mRNA / production in cultured endothelial cells after VPA treatment. Particulars: no decrease of PAI-1 mRNA levels, slight but significant increase. The format is cell-based.
Data set [6] deals with PAI-1. Nature of the data set: Plasma PAI-1 in in vivo model in mouse. To be noted: in vivo model in mouse (unpublished data).
The nature of data set [7]: Example 3 clinical outcome study in high-risk patients: recurrent atherothrombotic events. The format is in vivo, human. Particulars: 400 mg valproic acid once daily at 11 pm, long-term, expected. As to the method:
A clinical outcome study is performed in high-risk patients who have experienced a recent major atherothrombotic cardiovascular event (myocardial infarction or TIA/ischemic stroke) to investigate the preventive effect of valproic acid treatment on the risk for recurrent events. The annual risk for a recurrent atherothrombotic event in the investigated population is estimated to approximately 7%. […] The event rate is monitored by Kaplan-Meyer statistics. The primary efficacy endpoint is the composite measure of either mortality, or non-fatal myocardial infarction or ischemic stroke. The study is event-driven to a total of 180 events. […] Thus, the study is expected to confirm the clinical efficacy and feasibility of using valproic acid for secondary prevention of cardiovascular disease.

Data set [8] deals with PAI-1. Briefly: Proof-of-concept study 2: plasma PAI-1 before and after VPA in patients with a history of myocardial infarction. Particulars: midmorning; for reduction in circulating plasma PAI-1 levels: 16 male patients with history of myocardial infarction, valproic acid 500 mg (Ergenyl Retard) twice daily for 28 days on top of ordinary prescription, p=0.01. It counts as in vivo, human. As to the method:
(§1) The effects of VPA on PAI-1 were analysed in two different proof-of-concept studies in healthy subjects as well as in patients with manifest atherosclerotic disease. […] PAI-1 plasma levels were measured in the morning at the first day of the study as well as at the end of the treatment period with VPA (see example 2 for details on the PAI-1 analysis).
In the second study, 16 non-smoking white male patients, aged 50-80 years with a history of a myocardial infarction were included. On top of their ordinary prescription (beta-blocker, ACE-inhibitor, statin, aspirin) they were treated with valproic acid 500 mg (Ergenyl Retard, Sanofi), twice daily during 28 days.

For data set [9], the system named is PAI-1. Nature of the data set: Proof-of-concept study 1: plasma PAI-1 before and after VPA in healthy subjects. The format is in vivo, human. Here is the method:
as §1
In the first study, 10 healthy non-smoking white male subjects (with mean BMI of approximately 26), aged 50-70 years were included and treated with valproic acid 500 mg (Ergenyl Retard, Sanofi) twice daily during 14 days.

Molecules are shown by their SMILES. Read-outs that look alike come from different tables or passages of the source.

In the case of `O=C(/C=C/c1cccc(S(=O)(=O)Nc2ccccc2)c1)NO` [Belinostat, (2E)-3-[3-(anilinosulfonyl)phenyl]-N-hydroxy-acrylamide], in data set [1] (bidaily), the MTD is 1000 mg bidaily.

For `CCN(CC)Cc1ccc2cc(COC(=O)Nc3ccc(C(=O)NO)cc3)ccc2c1.Cl` [Givinostat, {6-[(diethylamino)methyl]-naphthalen-2-yl}methyl[4-(hydroxycarbamoyl)phenyl]carbamate], the MTD in data set [2] is recorded as 200 mg once daily (in healthy volunteers).

For the compound `Cc1[nH]c2ccccc2c1CCNCc1ccc(/C=C/C(=O)NO)cc1` [Panobinostat, (E)-N-hydroxy-3-[4-[[2-(2-methyl-1H-indol-3-yl)ethylamino]methyl]phenyl]prop-2-enamide], the MTD in data set [1] (every other day) is on record as 20 mg every other day.

`CCCCc1nc2cc(/C=C/C(=O)NO)ccc2n1CCN(CC)CC` [SB939, (2E)-3-{2-butyl-1-[2-(diethylamino)ethyl]-1H-benzimidazol-5-yl}-N-hydroxyacrylamide]: the MTD in data set [1] (once daily) is 60 mg once daily.

`O=C(CCCCCCC(=O)Nc1ccccc1)NO` [Vorinostat, N-hydroxy-N′-phenyl-octanediamide]: in data set [1] (once daily), the MTD was 400 mg once daily.

In the case of `CCCC(CCC)C(=O)O` [valproic acid, 2-propylpentanoic acid], in the data set with PAI-1 [3] (400 mg valproic acid enteric-coated tablet with delayed absorption, oral once daily at 11 pm for 2 weeks), the “time of peak plasma concentration of valproic acid” value was “between 3 am and 6 am”. Further, the “lowering of plasma PAI-1 levels after the treatment” value in the data set on PAI-1 [3] (400 mg valproic acid oral once daily at 11 pm for 2 weeks) was “approximately 30%”. Moreover, the “effects on plasma PAI-1” value in the data set with PAI-1 [4] and with PAI-1 [6] was “did not detect any effects” throughout. Also, the “increase in PAI-1 production” value in data set [5] was determined as 30%. In addition, the “reduction of risk for recurrent atherothrombotic event” value in [7] (in addition to conventional therapy) was “approximately 30%”. In addition, the “annual absolute event rate” value in data set [7] (approximately 7% estimated without treatment) is given as “approximately 5%”. Besides, the “reduction in circulating plasma PAI-1 levels” value in the data set with PAI-1 [8] is given as 45%; with PAI-1 [8] (listed as VPA), “about 45%”; in the data set on PAI-1 [9] (10 healthy men aged 50-70, valproic acid 500 mg (Ergenyl Retard) twice daily for 14 days, mid-morning vs before treatment, p<0.05), “more than 50%”. Also, the “circulating plasma PAI-1 level after treatment” value in the data set on PAI-1 [8] (patients with history of myocardial infarction, valproic acid 500 mg twice daily for 28 days, 19.6 ng/ml before treatment) came to 11 ng/mL; with PAI-1 [9] (healthy men, valproic acid 500 mg twice daily for 14 days, mid-morning, 22.2 ng/ml before treatment), 10.8 ng/mL.
